Test results reported in PMC2970562, “High-Affinity Inhibitors of Human NAD^+-Dependent 15-Hydroxyprostaglandin Dehydrogenase: Mechanisms of Inhibition and Structure-Activity Relationships” (PLoS ONE, 2010).
Where two headings read alike, the source gives them in different places.

Legend:
human 15-PGDH [1] = biological target: T1, human 15-PGDH (Homo sapiens, UniProt P15428); experiment: qHTS and 24-point re-test: fluorescence assay of NAD+ reduction to NADH on PGE2 oxidation (PubChem AID 894); type: biochemical
T1 construct: comprising residues 3–256 of the human HPGD gene (GenBank identifier: 1203982); His6 (GHHHHHH, behind the TEV site) (C, cleaved yes); made in house; host or cells: E. coli BL21(DE3)-R3
T1 sequence (P15428 3-256): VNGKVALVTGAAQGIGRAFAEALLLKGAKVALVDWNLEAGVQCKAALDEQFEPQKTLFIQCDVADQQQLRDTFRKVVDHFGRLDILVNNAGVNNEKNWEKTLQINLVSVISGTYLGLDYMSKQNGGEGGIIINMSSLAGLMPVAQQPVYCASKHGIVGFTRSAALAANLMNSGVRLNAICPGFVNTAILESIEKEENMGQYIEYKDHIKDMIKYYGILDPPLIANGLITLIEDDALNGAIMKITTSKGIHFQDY
Experimental: The assay was miniaturized to a 4-µL volume in 1536-well format: enzyme (3 µL) was dispensed first, followed by a pintool transfer of library compounds dissolved in DMSO. After equilibration, a substrate dispense (1 µL) initiated the enzymatic reaction (see Materials and Methods, for detailed protocol description). […] Hits associated with low-efficacy (<40% maximum inhibition), incomplete curves, as well as those displaying only a single-point inhibition at the top concentration tested were eliminated from further consideration. Similarly, the collection of real-time kinetic data allowed the autofluorescence of each compound to be evaluated by comparing the initial fluorescence read at top concentration with the mean value of uninhibited assay controls: compounds whose top-concentration initial well fluorescence exceeded six standard deviations over the mean were flagged as potential autofluorescent artifacts, [28] (see example in supplementary information Figure S1E). The complete screening and followup results are available in PubChem (PubChem Assay ID 894).
The enzymatic reaction was performed in 50 mM Tris-HCl pH 8.0, containing 0.01% Tween 20. […] The high-throughput screen was performed on a fully integrated robotic system (Kalypsys Inc, San Diego, CA) as described elsewhere. Library compounds, arrayed as seven-point inter-plate concentration series, were screened from the lowest (3.5 nM) to the highest (57.5 µM) concentration, with plates containing DMSO only, serving to note any systematic drifts in the signal, interspersed evenly throughout the screen (approximately every 50 plates). Briefly, 3 µL of reagents were dispensed into 1536-well Greiner black solid-bottom assay plates using integrated nanoliter solenoid-technology dispensers. Compounds and controls (23 nL) were transferred via Kalypsys pintool equipped with 1,536-pin array (10-nL slotted pins; V&P Scientific, Palo Alto, CA). After a 15-minute incubation (to allow for interaction between compound and enzyme), a 1-µL substrate addition step initiated the reaction. Kinetic data were collected on a ViewLux High-throughput CCD imager (Perkin-Elmer) equipped with standard UV fluorescence optics (exc. 340 nm, em. 450 nm).
Starting fluorescence intensity and the change in fluorescence over the two-minute initial rate period were recorded for every well. Screening data were normalized against no-enzyme (64 wells, columns 3 and 4) and no-compound (32 wells located in column 1) controls, and concentration-response relationships were derived as described previously. A four-parameter Hill equation [47] was fitted to the concentration-response data using publicly available algorithms (http://www.ncgc.nih.gov/pub/openhts/curvefit/).

human 15-PGDH [2] = biological target: T1, human 15-PGDH; experiment: Differential scanning fluorimetry (DSF), thermal stabilization; type: binding; conditions: 1 µM protein, compound 50 or 250 µM, N/A = no unfolding transition observed in DSF; for ∆Tm [°C] NAD+: with 200 µM NAD+; for ∆Tm [°C] NADH: with 200 µM NADH; for ∆Tm [°C] apo: without cofactor
Experimental: A correlation between the ΔTm and the inhibitory potency has been shown in a number of protein-ligand systems, particularly for kinases [32]–[34].
Studies to assess the thermal stability of human 15-PGDH in presence of compounds were performed as described previously, with variations. Briefly, the protein was diluted to a final assay concentration of 1 µM in 100 mM Tris buffer pH 8.0, containing 0.01% Tween-20 and 1∶1000 SYPRO orange dye (Invitrogen). […] Compounds were added at a ratio of 1∶5 from appropriate stock solutions in 10% (v/v) DMSO to comprise either 50 or 250 µM final concentrations. Heat denaturation curves were recorded using a RT-PCR instrument (Mx3005p, Agilent) applying a temperature gradient of 2°C/min. […] 2.5 (ftp://ftp.sgc.ox.ac.uk/pub/biophysics) and PRISM 5.0 (GraphPad Software, Inc.).

[3] = potency in 24-point titrations on re-test, 20 nM 15-PGDH, 1 mM NAD+, 30 µM PGE2, pH 8.0, read-out: qHTS IC50

Row | IC50 (human 15-PGDH [1]; [3]) | ∆Tm [°C] NAD+ (human 15-PGDH [2]) | ∆Tm [°C] NADH (human 15-PGDH [2]) | ∆Tm [°C] apo (human 15-PGDH [2]) | IC50 (human 15-PGDH [1]; read-out: qHTS IC50) | IC50 (human 15-PGDH [1]; control inhibitor, 16-point dilution series in duplicate on every qHTS plate, read-out: average IC50) | SMILES
1 | 251 nM | 3.0 °C | 6.1 °C | -0.1 °C |  |  | O=C(c1ccc(N2C(=O)C3CC=C(Cl)CC3C2=O)cc1)N1CCCCC1 (centres unmarked) [Compound 1]
2 | 794 nM | 1.7 °C | 6.0 °C | -0.6 °C |  |  | C=C(C(=O)OC)C1CCC2(C)C(OC(=O)C(Cc3ccc(O)cc3)OC(=O)C(O)C(C)C)CCC(O)(COC3OC(CO)C(O)C(O)C3O)C2C1O (centres unmarked) [Compound 2]
3 | 562 nM | 2.1 °C | 6.7 °C | -0.6 °C |  |  | CCCCCCOCCCCc1ccc(-c2ccc(OCCCCCCC3CC3)nc2)nn1 [Compound 3]
4 | 1000 nM | 2.2 °C | 4.7 °C | 0.3 °C |  |  | COc1ccccc1C(=O)Nc1ccc(C(=O)N2CCCC2)cc1 [Compound 4]
5 |  | 2.3 °C | 7.1 °C | -0.8 °C | 631 nM |  | CC1CCN(C(=O)c2ccc(CSc3ccc(Cl)cc3)cc2)CC1 [Compound 5]
6 |  | 7.1 °C | 10.6 °C | -0.1 °C | 89 nM |  | O=C(c1ccc(COc2ccccc2Br)cc1)N1CCCCC1 [Compound 7]
7 | 200 nM | 3.0 °C | 6.6 °C | -1.4 °C |  |  | C=CCN1C(=O)[C@@H](CC(=O)Nc2cc(C)ccc2C)SC1=Nc1cc(C)cc(C)c1 [Compound 8]
8 | 224 nM | 2.2 °C | 7.8 °C | -1.1 °C |  |  | O=C(O)CC1(CO)CC1 [Compound 9]
9 | 126 nM | 3.8 °C | 10.6 °C | -0.4 °C |  |  | CC1CCCN(C(=O)c2ccc(COc3ccccc3Br)cc2)C1 (centres unmarked) [Compound 11]
10 | 355 nM | 2.2 °C | 7.1 °C | -1.6 °C |  |  | CN(Cc1cccc(Cl)c1)c1ccc(S(C)(=O)=O)cc1S(C)(=O)=O [Compound 12]
11 | 251 nM | 3.2 °C | 7.8 °C | -1.0 °C |  |  | C=CCOC12Oc3ccc(Oc4ccc(OC)c(C=O)c4)cc3C3C(CCCCO)C(CCCCO)C=C(C(=NOCC)CC1N(CCC)C(=O)OCCOCc1ccccc1)C32 (centres unmarked) [Compound 14]
12 | 224 nM | 3.5 °C | 7.8 °C | -1.8 °C |  |  | Cc1cc(NC(=O)COC(=O)c2cccc(S(=O)(=O)NC(C)(C)C)c2)no1 [Compound 16]
13 | 708 nM | 3.3 °C | 4.4 °C | 0.1 °C |  |  | C[C@H]1CCCCN1C(=O)CSc1nnc(-c2ccccc2F)o1 [Compound 17]
14 | 2510 nM | 1.5 °C | 2.2 °C | -1.1 °C |  |  | Cc1ccccc1C(=O)N1CCc2ccccc2C1 [Compound 18]
15 | 224 nM | 3.1 °C | 7.9 °C | 0.3 °C |  |  | COC(=O)c1cc(CNC(=O)C2(c3ccc(Cl)cc3)CC2)ccc1OC [Compound 20]
16 | 2240 nM | 1.2 °C | 1.6 °C | -0.4 °C |  |  | CCCC(NC(=O)Cn1c(-c2cccs2)n[nH]c1=S)c1ccccc1 (centres unmarked) [Compound 23]
17 | 501 nM | 2.7 °C | 8.4 °C | -0.1 °C |  |  | CN(C)C(=O)C(NCCc1c[nH]c2ccccc12)c1ccccc1 (centres unmarked) [Compound 29]
18 | 562 nM | 2.4 °C | 6.4 °C | 0.2 °C |  |  | COc1ccccc1NS(=O)(=O)c1cc(C(=O)N2CCC2)ccc1C [Compound 30]
19 | 3160 nM |  |  |  |  |  | CC1(C)Oc2c(N=C=O)ccc(Cl)c2C1=O [Compound 87]
20 |  |  |  |  |  | 10400 nM | O=C1Nc2ccc(I)cc2/C1=C/c1cc(Br)c(O)c(Br)c1 [GW5074, reference compound]
